Measured values from patent publication US20160303108A1, “NOVEL DOSAGE FORM AND FORMULATION OF ABEDITEROL” (Almirall, S.A., priority 2012, published 2016).
Marks after values point to notes of the source that are not given here. One block for each compound: values may come before it.

Legend:
[1] = system: patients with stable moderate to severe chronic obstructive pulmonary disease (COPD); assay: Clinical phase IIa single-dose cross-over study in stable moderate to severe COPD (trough FEV1, safety, tolerability); type: in vivo, human; details: for Change from baseline in morning pre-dose (trough) FEV1 at Day 2: 23-24 h after administration
Description: (§1) Clinical phase IIa study: A randomised, single dose, double-blind, double-dummy, 6 way complete cross-over, placebo and active comparator controlled, assesses the efficacy, safety and tolerability of single doses of abediterol administered once daily by inhalation compared to placebo and active comparator in patients with stable moderate to severe chronic obstructive pulmonary disease (COPD).
(§2) Methods: 63 patients (men and women aged ≧40 years) with a clinical diagnosis of stable moderate to severe COPD, as defined by the 2011 GOLD guideline, with no signs of an exacerbation within 6 weeks prior to the screening visit and with a FEV1 30-80% of the predicted normal values (according to Quanjer et al. 1993) were randomised to treatment sequences comprising a single-dose administration of abediterol (at a metered nominal dose of 0.625, 2.5, 5 and 10 micrograms in the Genuair® device), one administration of indacaterol (at a metered nominal dose of 150 micrograms once daily in the Onbrez Breezhaler® device) and placebo (administered in both Genuair® and Onbrez Breezhaler®). The washout period between each administration was at least 7 days. Lung function measurements included (by spirometry) trough FEV1. Trough FEV1 is defined as a main FEV1 value between 23 and 24 h after Investigational Medicinal Product (IMP) administration.

[2] = system: persistent asthmatic patients; assay: Clinical phase IIa single-dose cross-over study in persistent asthma (FEV1, safety, tolerability); type: in vivo, human
Description: as §1, with “persistent asthmatic patients.” for “patients with stable moderate to severe chronic obstructive pulmonary disease (COPD).”
(§3) Methods: 62 patients (Adult men and women aged 18-70 years) with a clinical diagnosis of persistent asthma, as defined by the 2011 GINA guideline, for at least 6 months prior to screening and with a FEV1 61-85% of the predicted normal values (according to Quanjer et al. 1993) were randomised to treatment sequences comprising a single-dose administration of abediterol (at metered nominal doses of 0.313, 0.625, 1.25 and 2.5 micrograms in the Genuair® device), one administration of salbutamol (at a metered nominal dose of 400 micrograms (100 micrograms×4 puffs) in the Ventolin Evohaler® device) and placebo (administered in both Genuair® and Ventolin Evohaler®) administered all of them by means of […]. The washout period between each administration was at least 7 days.

[3] = Measurement of the fine particle dose (FPD<5 μm, Anderson Cascade Impactor, Genuair inhaler); type: physicochemical
Method: The test on the aerodynamic assessment of the fine particles (FPD<5 μm) of the inhalation powder composition is carried out in combination with the Genuair® inhaler. The Fine Particle Fraction of abediterol free base was calculated on basis of the principles of the aerodynamic assessment of fine particles according to the Current European pharmacopoeia (Ph. Eur. Chapter 2.9.18) and USP <601> by the aid of aerodynamic impactor analyses using a modified Anderson Cascade Impactor (ACI), 60 L/min-configuration including pre-separator, stage −1, −0, and stage 1-7 (filter stage). The content of the active ingredient on each stage of the impactor is determined my means of HPLC.
The fine particle dose (FPD<5 μm) is calculated based on Ph. Eur. Chapter 2.9.18 and USP <601> by point to point interpolation per dosage. Linear point to point interpolation is done between the stages with a corresponding effective cut-off diameter which enclose the 5 μm mark.
To obtain the Fine Particle Dose, the cumulative percent value (y-value) at which the line of data plot crosses 5 μm mark is determined. […]
FPD [μg]=yFPD·F/100% • FPD=Fine particle dose<5 μm of the active ingredient per dosage [μg]. • yFPD=y-value of cumulative percentage of mass at a particle size of 5 μm evaluated by linear point to point interpolation [%]. • F=sum of mass on stage −1-stage 7 (filter) per dosage [μg].

[4] = system: asthmatic and COPD patients; assay: Overall conclusion of the phase IIa studies in asthmatic and COPD patients; type: in vivo, human
Description: as §3, §2

[5] = Measurement of the delivered dose (collection tube, Genuair inhaler, HPLC); type: physicochemical
Method: The measurement of the delivered dose is carried out based on Ph. Eur. Chapter 2.9.18 and USP <601> using “collection tube” apparatus (CT). For this, the Genuair® inhaler is fitted to the Collection Tube via an adapter, the dosage key of the Genuair® inhaler is pressed and released and then 2 L or 4 L of air are sucked through the inhaler and the Collection Tube (the inspiratory flow rate through the inhaler was approx. 65 L/min at a pressure drop of 4 KPa). Subsequently, the inhalation powder delivered to the Collection Tube is extracted with solvent and analyzed using High Performance Liquid chromatography equipment (HPLC).

[6] = nominal dose of 1.25 micrograms abediterol free base
[7] = nominal dose of 2.5 micrograms abediterol free base

Fine particle dose (FPD<5 μm) per dose [3, 6]: about 0.45 micrograms
Fine particle dose (FPD<5 μm) per dose [3, 7]: about 1.0 micrograms
Delivered dose per dose [5, 6]: about 1.1 micrograms
Delivered dose per dose [5, 7]: about 2.3 micrograms
Compound: O=c1ccc2c([C@@H](O)CNCCCCCCOCC(F)(F)c3ccccc3)ccc(O)c2[nH]1 [Abediterol, 5-(2-{[6-(2,2-difluoro-2-phenylethoxy)hexyl]amino}-1(R)-hydroxyethyl)-8-hydroxyquinolin-2(1H)-one]
Tolerability (ECG, laboratory parameters, adverse events) ([1]; COPD patients, doses 0.625-10 micrograms, no dose-dependent effect): well tolerated
Trough FEV1 compared with indacaterol 150 micrograms ([1]; doses of 2.5, 5 and 10 micrograms, statistically significant): greater trough FEV1
Minimum therapeutic effective dose producing higher bronchodilatory effects when compared with indacaterol 150 micrograms ([1]; metered nominal dose, Genuair): 2.5 micrograms
Change from baseline in morning pre-dose (trough) FEV1 at Day 2 ([1]; single inhaled dose 0.625 μg, Genuair, n = 67): 66* ml
Change from baseline in morning pre-dose (trough) FEV1 at Day 2 ([1]; single inhaled dose 2.5 μg, Genuair, n = 66): 168** ml
Change from baseline in morning pre-dose (trough) FEV1 at Day 2 ([1]; single inhaled dose 5 μg, Genuair): 198** ml
Change from baseline in morning pre-dose (trough) FEV1 at Day 2 ([1]; single inhaled dose 10 μg, Genuair): 223*** ml
Tolerability (ECG, laboratory parameters, adverse events) ([2]; asthma patients, doses 0.313-2.5 micrograms, no dose-dependent effect): well tolerated
Bronchodilatory effect compared with salbutamol ([2]; doses of 1.25 and 2.5 micrograms vs salbutamol 400 micrograms): increased bronchodilatory effect
Time to peak FEV1 at day 1 ([2]; post-dose, all abediterol doses (0.313-2.5 micrograms)): ≤ 4 h
Change from baseline in peak FEV1 on Day 1 ([2]; single inhaled dose 0.313 μg, Genuair, n = 60): 477* ml
Change from baseline in peak FEV1 on Day 1 ([2]; single inhaled dose 0.625 μg, Genuair, n = 60): 524* ml
Change from baseline in peak FEV1 on Day 1 ([2]; single inhaled dose 1.25 μg, Genuair, n = 60): 573** ml
Change from baseline in peak FEV1 on Day 1 ([2]; single inhaled dose 2.5 μg, Genuair, n = 61): 608*** ml
Duration of bronchodilation effect ([4]; all dose levels tested): more than 24 h
Changes on safety outcomes (HR, QTcF, glucose and potassium) ([4]; all doses tested): no overall clinically relevant changes
Minimum dose having similar therapeutic effect to salbutamol and indacaterol ([4]; metered nominal dose, Genuair): 0.625 micrograms

Compound: CCc1cc2c(cc1CC)CC(NC[C@H](O)c1ccc(O)c3[nH]c(=O)ccc13)C2 [Indacaterol, reference compound]
Change from baseline in morning pre-dose (trough) FEV1 at Day 2 ([1]; 150 μg, Onbrez Breezhaler, n = 68): 76* ml

Compound: CC(C)(C)NCC(O)c1ccc(O)c(CO)c1 (centres unmarked) [Salbutamol, reference compound]
Change from baseline in peak FEV1 on Day 1 ([2]; 400 μg (100 micrograms×4 puffs), Ventolin Evohaler, n = 58): 555** ml
